Reference: patent publication US20220002268A1, “NOVEL HETEROARYL-TRIAZOLE AND HETEROARYL-TETRAZOLE COMPOUNDS AS PESTICIDES” (Bayer Aktiengesellschaft, priority 2019, published 2022)

Assays:
Boophilus microplus = Boophilus microplus injection test; format: in vivo; details: Rhipicephalus microplus, 168 h; 20 gg/animal, injection into abdomen, after 7 days; read-out: efficacy (infertile eggs)
Method: Boophilus microplus—Injection Test Solvent: dimethyl sulfoxide To produce a suitable preparation of active compound, 10 mg of active compound are dissolved in 0.5 ml solvent, and the concentrate is diluted with solvent to the desired concentration. Five adult engorged female ticks (Boophilus microplus) are injected with 1 μl compound solution into the abdomen. The ticks are transferred into replica plates and incubated in a climate chamber. After 7 days egg deposition of fertile eggs is monitored. Eggs where fertility is not visible are stored in a climate chamber till hatching after about 42 days. An efficacy of 100% means all eggs are infertile; 0% means all eggs are fertile.

Ctenocephalides felis [1] = assay: Ctenocephalides felis oral test; format: in vivo; details: 48 h, 100 ppm in cattle blood, after 2 days
Method: Ctenocephalides felis—Oral Test Solvent: dimethyl sulfoxide
To produce a suitable preparation of active compound, 10 mg of active compound are dissolved in 0.5 ml solvent, and the concentrate is diluted with cattle blood to the desired concentration.
Approximately 20 adult unfed cat fleas (Ctenocephalides felis) are placed in flea chambers. The blood chamber, sealed with parafilm on the bottom, are filled with cattle blood supplied with compound solution and placed on the gauze covered top of the flea chamber, so that the fleas are able to suck the blood. The blood chamber is heated to 37° C. whereas the flea chamber is kept at room temperature.
After 2 days mortality in % is determined. 100% means all the fleas have been killed; 0% means none of the fleas have been killed.

Phaedon cochleariae = Phaedon cochleariae spray test; format: in vivo; details: 168 h, after 7 days
Method: Phaedon cochleariae—Spray Test Solvent: 78.0 parts by weight of acetone • • 1.5 parts by weight of dimethylformamide Emulsifier: alkylarylpolyglycol ether
(§1) To produce a suitable preparation of active compound, 1 part by weight of active compound is mixed with the stated amount of solvents and is diluted with water, containing an emulsifier concentration of 1000 ppm, to the desired concentration. Further test concentrations are prepared by dilution with emulsifier containing water.
Chinese cabbage (Brassica pekinensis) leaf disks are sprayed with a preparation of the active ingredient of the desired concentration. Once dry, the leaf disks are infested with mustard beetle larvae (Phaedon cochleariae).
After 7 days mortality in % is determined. 100% means all beetle larvae have been killed and 0% means none of the beetle larvae have been killed.

Spodoptera frugiperda = Spodoptera frugiperda spray test; format: in vivo; details: 168 h, after 7 days
Method: Suodontera frugiuerda—Spray Test Solvent: 78.0 parts by weight acetone • 1.5 parts by weight dimethylformamide Emulsifier: alkylarylpolyglycol ether
as §1
Maize (Zea mays) leaf sections are sprayed with a preparation of the active ingredient of the desired concentration. Once dry, the leaf sections are infested with fall armyworm larvae (Spodoptera frugiperda).
After 7 days mortality in % is determined. 100% means all caterpillars have been killed and 0% means none of the caterpillars have been killed.

Diabrotica balteata = Diabrotica balteata spray test; format: in vivo; details: 168 h, 160 gg/well, after 7 days, read-out: efficacy (seedlings grown)
Method: Diabrotica balteata—Spray Test Solvent: 78.0 parts by weight of acetone • • 1.5 parts by weight of dimethylformamide Emulsifier: alkylarylpolyglycol ether
as §1, with “solvent,” for “solvents”, “and the concentrate” for “and”
Soaked wheat seeds (Triticum aestivum) are placed in a multiple well plate filled with agar and some water and are incubated for 1 day to germinate (5 seeds per well). The germinated wheat seeds are sprayed with a test solution containing the desired concentration of the active ingredient. Afterwards each unit is infected with 10-20 larvae of the banded cucumber beetle (Diabrotica balteata).
After 7 days efficacy in % is determined. 100% means all the seedlings have grown up like in the untreated, uninfected control; 0% means none of the seedlings have grown.

Myzus persicae = Myzus persicae oral test; format: in vivo; details: 120 h, after 5 days
Method: Myzus persicae—Oral Test Solvent: 100 parts by weight acetone
To produce a suitable preparation of active compound, 1 part by weight of active compound is mixed with the stated amount of solvent, and the concentrate is diluted with water to the desired concentration.
50 μl compound solution is filled in microtiter plates and 150 μl IPL41 insect medium (33%+15% sugar) is added to obtain a total volume of 200 μl per well. Afterwards the plates are sealed with parafilm through which a mixed population of the green peach aphid (Myzus persicae) can suck on the compound preparation.
After 5 days mortality in % is determined. 100% means all aphids have been killed and 0% means none of the aphids have been killed.

Ctenocephalides felis [2] = assay: Ctenocephalides felis in-vitro contact test, adult cat flea; format: in vivo; details: 5 μg/cm^2, after 48 hours
Method: (§2) 9 mg compound is solved in 1 ml acetone and diluted with acetone to the desired concentration. 250 μl of the test solution is filled in 25 ml glass test tubes and homogeneously distributed on the inner walls by rotation and tilting on a shaking device (2 h at 30 rpm). With a compound concentration of 900 ppm, an inner surface of 44.7 cm^2 and a homogeneous distribution, a dose of 5 μg/cm^2 is achieved.
(§3) After the solvent has evaporated, each test tube is filled with 5-10 adult cat fleas (Ctenocephalides felis), closed with a perforated lid and incubated in a lying position at room temperature and relative humidity. After 48 hours efficacy is determined. The fleas are patted on the ground of the tubes and are incubated on a heating plate at 45-50° C. for at most 5 minutes. Immotile or uncoordinated moving fleas, which are not able to escape the heat by climbing upwards, are marked as dead or moribund.
An efficacy of 100% means all fleas are dead or moribund; 0% means no fleas are dead or moribund.

Rhipicephalus sanguineus = Rhipicephalus sanguineus in-vitro contact test, adult brown dog ticks; format: in vivo; details: 5 gg/cm^2, after 48 hours
Method: as §2
as §3, with “brown dog ticks (Rhipicephalus sanguineus),” for “cat fleas (Ctenocephalides felis),”, “ticks” for “fleas”, “ticks,” for “fleas,”
An efficacy of 100% means all ticks are dead or moribund; 0% means no ticks are dead or moribund.

[3] = tested on: Aedes aegypti strain MONHEIM; assay: Aedes aegypti test (AEDSAE surface treatment & contact assay); format: in vivo; details: surface concentration 20 mg/m^2, 30 minutes exposure, 24 hours after contact, read-out: efficacy (mortality)
Method: Aedes aegyti Test (AEDSAE Surface Treatment & Contact Assay) Solvent: Aceton+2000 ppm rapeseed oil methyl ester (RME)
(§4) In order to produce a sufficient, active ingredient containing solution it is necessary to solve the test compound in the solvent-mix (acetone at 2 mg/ml/RME 2000 ppm). This solution is pipetted onto a glazed tile and after evaporation of the acetone, adult mosquitoes of the species Aedes aegypti strain MONHEIM are placed onto the dried surface. The exposure time is 30 minutes.
(§5) Mortality in percent (%) is determined 24 hours after contact to the treated surface. 100% mortality means that all tested insects are dead, whereas 0% means that no insect died.

[4] = tested on: Culex quinquefasciatus strain P00; assay: whole plant or invertebrate; format: in vivo; details: read-out: efficacy (mortality)
Method: Culex quinquefasciatus Test (CULXFA Surface Treatment & Contact Assay) Solvent: Aceton+2000 ppm rapeseed oil methyl ester (RME)
as §4, with “Culex quinquefasciatus” for “Aedes aegypti”, “P00” for “MONHEIM”
as §5

[5] = tested on: Anopheles funestus strain FUMOZ-R; assay: whole plant or invertebrate; format: in vivo; details: read-out: efficacy (mortality)
Method: Anopheles funestus Test (ANPHFU Surface Treatment & Contact Assay) Solvent: Aceton+2000 ppm rapeseed oil methyl ester (RME)
as §4, with “Anopheles funestus” for “Aedes aegypti”, “FUMOZ-R (Hunt et al., Med. Vet. Entomol. 2005 September; 19(3): 271-275)” for “MONHEIM”
as §5

Nilaparvata lugens = Nilaparvata lugens spray test; format: in vivo; details: 96 h, after 4 days
Method: Nilaparvata lugens—Spray Test Solvent: 78.0 parts by weight of acetone • • 1.5 parts by weight of dimethylformamide Emulsifier: alkylarylpolyglycol ether
as §1
Rice plants (Oryza sativa) are sprayed with a preparation of the active ingredient of the desired concentration and the plants are infested with the brown planthopper (Nilaparvata lugens).
After 4 days mortality in % is determined. 100% means all planthoppers have been killed and 0% means none of the planthoppers have been killed.

[6] = log P by HPLC on reversed phase, neutral range; format: physicochemical; details: reversed phase HPLC column, LC-UV, 0.001 molar ammonium acetate solution in water and acetonitrile
Method: Measurement of log P values was performed according to EEC directive 79/831 Annex V.A8 by HPLC (High Performance Liquid Chromatography) on reversed phase columns with the following methods. Instrument(s): Agilent 1100 LC system, Agilent MSD system, HTS PAL; Waters IClass Acquity UPLC, SQD2 (MS), PDA (UV). […] Calibration was done with straight-chain alkan-2-ones (with 3 to 16 carbon atoms) with known log P values (measurement of log P values using retention times with linear interpolation between successive alkanones). Lambda-max-values were determined using UV-spectra from 200 nm to 400 nm and the peak values of the chromatographic signals.

| Structure (SMILES) | pest or weed control at 0.02 mg (Boophilus microplus) [%] | mortality at 100 ppm (Ctenocephalides felis [1]) [%] | mortality at 500 g/ha (Phaedon cochleariae) [%] | pest or weed control at 160 µg/well (Diabrotica balteata) [%] | mortality at 20 ppm (Myzus persicae) [%] | other results |
| --- | --- | --- | --- | --- | --- | --- |
| O=C(NC1(c2ncnn2-c2ncccn2)CC1)c1cc(C(F)(F)F)cc(C(F)(F)F)c1 [Example I-014] | 100 |  |  |  |  |  |
| O=C(NC(c1ncnn1-c1ncccn1)C1CC1)c1cc(Cl)cc(C(F)(F)F)c1 (stereo not shown) [Example I-008] | 95 | 100 | 100 |  |  |  |
| COCC(NC(=O)c1cc(Cl)cc(C(F)(F)F)c1)c1ncnn1-c1ccc(C#N)cn1 (stereo not shown) [Example I-013] | 100 | 100 |  |  |  | mortality at 500 g/ha (Spodoptera frugiperda): 100% |
| O=C(c1cc(Cl)nc(Cl)c1)N(Cc1ncnn1-c1ncccn1)CC1CC1 [Example I-002] |  | 80 | 100 | 100 | 100 |  |
| COC[C@H](NC(=O)c1cc(Cl)cc(OC(F)(F)F)c1)c1ncnn1-c1ccc(C#N)cn1 [Example I-018] |  |  |  |  |  | mortality at 500 g/ha (Spodoptera frugiperda): 100% |
| O=C(NCc1ncnn1-c1ncccn1)c1cc(Cl)cc(C(F)(F)F)c1 [Example I-005] | 100 | 100 | 100 | 100 | 100 | efficacy (fleas dead or moribund) (Ctenocephalides felis [2]): 100%; efficacy (ticks dead or moribund) (Rhipicephalus sanguineus): 100%; mortality at 500 g/ha (Spodoptera frugiperda): 100%; mortality at 20 mg/m2 [3]: 85 to 100%; mortality at 4 mg/m2 [4]: 85 to 100%; mortality at 20 mg/m2 [4]: 85 to 100%; mortality at 4 mg/m2 [5]: 85 to 100%; mortality at 20 mg/m2 [5]: 85 to 100% |
| O=C(c1cc(Cl)cc(Cl)c1)N(Cc1ncnn1-c1ncccn1)CC1CC1 [Example I-010] |  |  | 100 | 100 | 100 |  |
| COCC(NC(=O)c1cc(Cl)cc(C(F)(F)F)c1)c1ncnn1-c1ncccn1 (stereo not shown) [Example I-012, 3-Chloro-N-{2-methoxy-1-[1-(pyrimidin-2-yl)-1H-1,2,4-triazol-5-yl]ethyl}-5-(trifluoromethyl)-benzamide] | 100 | 100 | 100 | 100 | 100 | efficacy (fleas dead or moribund) (Ctenocephalides felis [2]): 100%; efficacy (ticks dead or moribund) (Rhipicephalus sanguineus): 80%; mortality at 500 g/ha (Nilaparvata lugens): 100% |
| COC[C@H](NC(=O)c1cc(Cl)cc(Cl)c1)c1ncnn1-c1ccc(C#N)cn1 [Example I-017] |  |  |  |  |  | efficacy (fleas dead or moribund) (Ctenocephalides felis [2]): 90%; mortality at 500 g/ha (Spodoptera frugiperda): 100% |
| NCCc1ncnn1-c1ncccn1 [a-002] |  |  |  |  |  | chromatographic logP [6]: 0.01 |
| N#Cc1ccc(-n2ncnc2CCN)nc1 [a-003] |  |  |  |  |  | chromatographic logP [6]: 0.87 |
| COCC(NC(=O)c1cc(Cl)cc(C(F)(F)F)c1)C(N)=O (stereo not shown) [n-001, N-(1-amino-3-methoxy-1-oxopropan-2-yl)-3-chloro-5-(trifluoromethyl)benzamide] |  |  |  |  |  | chromatographic logP [6]: 1.94 |
| O=C(NC(CC1CC1)c1ncnn1-c1ncccn1)c1cc(Cl)cc(C(F)(F)F)c1 (stereo not shown) [Example I-007] |  |  |  |  | 100 |  |
| O=C(NCCc1ncnn1-c1ncccn1)c1cc(Cl)cc(C(F)(F)F)c1 [Example I-006] | 100 | 100 | 100 | 100 | 100 | mortality at 20 mg/m2 [3]: 85 to 100% |
| O=C(c1cccc(C(F)(F)F)c1)N(Cc1ncnn1-c1ncccn1)CC1CC1 [Example I-003] | 100 |  | 100 | 100 | 100 |  |
